Consider 26 molecules from patent US6887873B2, “Triazine derivatives and their application as antitelomerase agents” (Aventis Pharma S.A., priority 2001, dated 2005).

The subject of experiment [1] is G-quadruplex of oligonucleotide GGGTTAGGGTTAGGGTTAGGG (3.5 repeats of the human telomereic motif). The experiment is described as follows: G-quadruplex stabilizing activity, fluorescence Tm (FAM+DABCYL oligonucleotide). The experiment is classed as binding. The source says:
The G-quadruplex stabilizing activity may be determined by a method using the formation of a complex with fluorescein of which the experimental protocol is described below.
All the nucleotides, modified or otherwise, were synthesized by Eurogentec SA, Seraing, Belgium. The oligonucleotide FAM+DABCYL carries the catalogue reference OL-0371-0802. It has the sequence: […] corresponding to 3.5 repeats of the human telomereic motif (strand rich in G). The fluorescein is attached to the 5′ end, the DABCYL to the 3′ end, by the chemical arms described by Eurogentec. The concentration of the samples is checked by spectrophotometry, recording the absorbance spectrum between 220 and 700 nm and using the molar extinction coefficient provided by the supplier.
All the experiments were carried out in a 10 mM sodium cacodylate buffer pH 7.6 containing 0.1 M lithium chloride (or sodium chloride). The absence of fluorescent contamination in the buffer was checked beforehand. The fluorescent oligonucleotide is added at the final concentration of 0.2 μM.
All the measurements of fluorescence were carried out on a Spex Fluorolog DM1B apparatus, using an excitation line width of 1.8 nm and an emission line width of 4.5 nm. The samples are placed in a microquartz cuvette of 0.2×1 cm. The temperature of the sample is controlled by an external water bath. The oligonucleotide alone was analysed at 20, 30, 40, 50, 60, 70 and 80° C. The emission spectra are recorded using an excitation wavelength of 470 nm. The excitation spectra are recorded using either 515 nm or 588 nm as emission wavelength. The spectra are corrected for the response of the instrument by reference curves. A high extinction (80-90%) of the fluorescence of fluorescein at room temperature is observed, in agreement with an intramolecular folding of the oligonucleotide at 20° C. in the form of a G-quadruplex, which induces juxtaposition of its 5′ and 3′ ends which are respectively linked to fluorescein and to DABCYL. This juxtaposition causes an already-described phenomenon of extinction of fluorescence which is used for “molecular beacons”.
An oligonucleotide stock solution at the strand concentration of 0.2 μM in 0.1 M LiCl, 10 mM cacodylate buffer, pH 7.6, is prepared beforehand, heated briefly at 90° C. and slowly cooled to 20° C., and then distributed in aliquots of 600 μl in the fluorescence cuvettes. 3 μl of water (for the control) or 3 μl of test product (stock at 200 μM, final concentration 1 μM) are then added and mixed. The samples are then allowed to incubate for at least 1 hour at 20° C. before each measurement. The use of longer incubation times (up to 24 hours) has no influence on the result obtained.
Each experiment allows the measurement of only one sample. The latter is first incubated at an initial temperature of 20° C., heated to 80° C. over 38 minutes, left for 5 minutes at 80° C. and then cooled to 20° C. over 62 minutes. During this time, the fluorescence is measured simultaneously at two emission wavelengths (515 nm and 588 nm) using 470 nm as excitation wavelength. A measurement is carried out every 30 seconds. The temperature of the water bath is recorded in parallel, and the fluorescence profile as a function of the temperature is reconstituted from these values. The fluorescence profiles are then normalized between 20° C. and 80° C., and the temperature for which the intensity of emission at 515 nm is the mean of those at high and low temperature is called Tm. Under these conditions, the Tm of the reference sample without addition of product is 44° C. in a lithium chloride buffer. This temperature is increased to more than 55° C. in a sodium chloride buffer. The addition of a G-quadruplex-stabilizing compound induces an increase in the Tm. This increase is judged to be significant if it is greater than 3°.

In experiment [2] the test system is human telomerease (HL60 cell extract). The experiment is described as follows: Antitelomerease activity: extension of oligonucleotide TS followed by PCR amplification, with HL60 extract. The experiment is classed as biochemical. The note with it: read-out: TRAP IC50. As to the method:
The antitelomerease biological activity is determined by the following experimental protocol:
The leukaemia line HL60 is obtained from ATCC (American Type Culture Collection, Rockville, USA). The cells are cultured in suspension in RPMI 1640 medium containing L-glutamine at 2 mM, penicillin 200 U/ml, streptomycin 200 μg/ml, gentamycin 50 μg/ml and supplemented with 10% heat-inactivated foetal calf serum.
An aliquot of 10^5 cells is centrifuged at 3000×G and the supernatant discarded. The cell pellet is resuspended by several successive pipettings in 200 μl of lysis buffer containing 0.5% CHAPS, 10 mM Tris-HCl, pH 7.5, 1 mM MgCl2, 1 mM EGTA, 5 mM β-mercaptoethanol, 0.1 mM PMSF and 10% glycerol and is stored in ice for 30 minutes. The lysate is centrifuged at 160,000×G for 20 minutes at 4° C. and 160 μl of supernatant are recovered. The proteins in the extract are assayed by the Bradford method. The extract is stored at −80° C.
The inhibition of the telomerease activity is determined by a protocol for extension of the oligonucleotide TS (^5′AATCGTTCGAGCAGAGTT^3′), in the presence of a cellular extract enriched in telomerease activity and compounds which are added at various concentrations (10, 1, 0.1 and 0.01 μM). The extension reaction is followed by a PCR amplification of the extension products with the aid of the oligonucleotides TS and CXext (^5′[…]^3′).
The reaction medium is prepared based on the following composition:
The oligonucleotides are obtained from Eurogentec (Belgium) and are stored at −20° C. at a stock concentration of 1 mg/ml in distilled water.
The reaction samples are assembled in 0.2 ml PCR tubes and one drop of paraffin oil is deposited on each of the reactions of the experiment before closing the tubes.
The reaction samples are then incubated in a Cetus 4800-type PCR apparatus under the following temperature conditions: • 15 minutes at 30° C., • 1 minute at 90° C., • followed by 30 cycles of, • 30 seconds at 94° C., • 30 seconds at 50° C., • and 1 minute 30 seconds at 72° C., • followed by a final cycle of 2 minutes at 72° C.
For each of the samples, an aliquot of 10 μl is pipetted under the oil layer and mixed with 5 μl of a loading buffer containing:
The samples are then analysed by electrophoresis on 12% acrylamide gel in a 1×TBE buffer for 1 hour at a voltage of 200 volts, with the aid of a Novex electrophoresis system.
The acrylamide gels are then dried on a sheet of Whatmann 3 mm paper at 80° C. for 1 hour.
The analysis and the quantification of the reaction products are carried out with the aid of an InstantImager apparatus (Pacard).
For each compound concentration tested, the results are expressed as percentage inhibition of the reaction and calculated from the untreated enzymatic control and from the enzyme-free sample (blank) according to the following formula: (compound value−blank value/enzymatic control value−blank value)×100.
The concentration of compound inducing a 50% inhibition of the telomerease reaction (IC50) is determined with the aid of a semilogarithmic graphical representation of the inhibition values obtained as a function of each of the compound concentrations tested.
A compound is considered to be active as an antitelomerease agent when the quantity inhibiting 50% of the telomerease reaction is in particular less than 5 μM.

As a reminder, the IC50 is the point on the concentration scale where inhibition reaches its midpoint. Turning to `Cc1cc(N)c2cc(Nc3nc(Nc4ccc5nc(C)cc(N)c5c4)nc(Nc4cccc5cn[nH]c45)n3)ccc2n1` [Example 56], in experiment [1], the “G4 delta Tm” value was determined as 2.5 °C. In addition, in experiment [2], the IC50 came out at 350 nM.
For `Cc1cc(N)c2cc(Nc3nc(Nc4ccc5nc(C)cc(N)c5c4)nc(N4CCN(CCc5ccccc5)CC4)n3)ccc2n1` [Example 57] the same measures were 8 °C and 300 nM.
With `Cc1cc(N)c2cc(Nc3nc(Nc4ccc5nc(C)cc(N)c5c4)nc(N4CCN(c5ncccn5)CC4)n3)ccc2n1` [Example 58], the “G4 delta Tm” value in experiment [1] came out at 6 °C. For the same molecule, the IC50 in experiment [2] worked out at 220 nM.
For `Cc1cc(N)c2cc(Nc3nc(Nc4ccc5nc(C)cc(N)c5c4)nc(N4CCN(c5ccncc5)CC4)n3)ccc2n1` [Example 59] the same measures were 11 °C and 190 nM.
Turning to `Cc1cc(N)c2cc(Nc3nc(Nc4ccc5nc(C)cc(N)c5c4)nc(N4CCN(CCCN(C)C)CC4)n3)ccc2n1` [Example 64], in experiment [1], the “G4 delta Tm” value turned out to be 12 °C. Also, in experiment [2], the IC50 was 90 nM.
On to `Cc1cc(N)c2cc(Nc3nc(Nc4ccc5nc(C)cc(N)c5c4)nc(N(C)C4CCN(Cc5ccccc5)C4)n3)ccc2n1` (stereo not shown) [Example 65], for which, in experiment [1], the “G4 delta Tm” value is 12.5 °C. Moreover, the IC50 in experiment [2] came out at 1000 nM.
On the same counts, the results for `Cc1cc(N)c2cc(Nc3nc(NCc4cccnc4)nc(Nc4ccc5nc(C)cc(N)c5c4)n3)ccc2n1` [Example 66] are 9 °C and 280 nM.
On to `Cc1cc(N)c2cc(Nc3nc(NCc4ccc(Cl)cc4)nc(Nc4ccc5nc(C)cc(N)c5c4)n3)ccc2n1` [Example 67], for which, in experiment [1], the “G4 delta Tm” value was determined as 6.5 °C. In addition, in experiment [2], the IC50 amounted to 430 nM.
For `Cc1cc(N)c2cc(Nc3nc(Nc4ccc5nc(C)cc(N)c5c4)nc(N4CCN(CCOCCO)CC4)n3)ccc2n1` [Example 69] the same measures were 18 °C and 160 nM.
As to `Cc1cc(N)c2cc(Nc3nc(Nc4ccc5nc(C)cc(N)c5c4)nc(N4CCCCC4CN4CCCCC4)n3)ccc2n1` (stereo not shown) [Example 70], the “G4 delta Tm” value in experiment [1] came out at 9.5 °C. In experiment [2], the IC50 was determined as 560 nM.
As for `Cc1cc(N)c2cc(Nc3nc(Nc4ccc5nc(C)cc(N)c5c4)nc(N4CCN(C(=O)C5CCCO5)CC4)n3)ccc2n1` (stereo not shown) [Example 72], the “G4 delta Tm” value in experiment [1] was determined as 9.5 °C. In experiment [2], the concentration for half-maximal inhibition (IC50) stood at 210 nM.
Turning to `COCCN1CCN(c2nc(Nc3ccc4nc(C)cc(N)c4c3)nc(Nc3ccc4nc(C)cc(N)c4c3)n2)CC1` [Example 73], the “G4 delta Tm” value in experiment [1] is 9.5 °C. For the same molecule, the 50% inhibitory concentration (IC50) in experiment [2] worked out at 370 nM.
With `Cc1cc(N)c2cc(Nc3nc(NCCN4CCN(Cc5ccccc5)CC4)nc(Nc4ccc5nc(C)cc(N)c5c4)n3)ccc2n1` [Example 74], in experiment [1], the “G4 delta Tm” value was 9.5 °C. In experiment [2], the IC50 amounted to 140 nM.
For `Cc1cc(N)c2cc(Nc3nc(Nc4ccc5nc(C)cc(N)c5c4)nc(N4CCN(CCN5CCCC5)CC4)n3)ccc2n1` [Example 75] the same measures were 13.5 °C and 50 nM.
As for `Cc1cc(N)c2cc(Nc3nc(Nc4ccc5nc(C)cc(N)c5c4)nc(N4CCCN(CCCN5CCCC5)CC4)n3)ccc2n1` [Example 76], in experiment [1], the “G4 delta Tm” value came to 19 °C. Moreover, the IC50 in experiment [2] turned out to be 110 nM.
In the case of `Cc1cc(N)c2cc(Nc3nc(Nc4ccc5nc(C)cc(N)c5c4)nc(N4CCN(CCN(C)C)CC4)n3)ccc2n1` [Example 88], in experiment [1], the “G4 delta Tm” value worked out at 6 °C. In experiment [2], the 50% inhibitory concentration (IC50) came to 110 nM.
On the same counts, the results for `Cc1cc(N)c2cc(Nc3nc(NCCN4CCCCC4)nc(Nc4ccc5nc(C)cc(N)c5c4)n3)ccc2n1` [Example 90] are 11 °C and 370 nM.
On to `Cc1cc(N)c2cc(Nc3nc(NCCNC(C)C)nc(Nc4ccc5nc(C)cc(N)c5c4)n3)ccc2n1` [Example 91], for which the “G4 delta Tm” value in experiment [1] stood at 7 °C. Moreover, the IC50 in experiment [2] turned out to be 370 nM.
`Cc1cc(N)c2cc(Nc3nc(Nc4ccc5nc(C)cc(N)c5c4)nc(Nc4cccc5ccc(C)nc45)n3)ccc2n1` [Example 98]: the “G4 delta Tm” value in experiment [1] amounted to 4 °C. Besides, the concentration for half-maximal inhibition (IC50) in experiment [2] was determined as 350 nM.
As for `CCN(CC)CCOc1nc(Nc2ccc3nc(C)cc(N)c3c2)nc(Nc2ccc3nc(C)cc(N)c3c2)n1` [Example 106], the “G4 delta Tm” value in experiment [1] came to 14.5 °C. The IC50 in experiment [2] worked out at 280 nM.
Regarding `Cc1cc(N)c2cc(Nc3nc(Nc4ccc5nc(C)cc(N)c5c4)nc(Oc4cccc5ccccc45)n3)ccc2n1` [Example 107], the “G4 delta Tm” value in experiment [1] was 4.5 °C. Besides, the IC50 in experiment [2] was 370 nM.
Regarding `Cc1cc(N)c2cc(Nc3nc(Nc4ccc5nc(C)cc(N)c5c4)nc(Oc4ccc5ccccc5c4)n3)ccc2n1` [Example 108], in experiment [1], the “G4 delta Tm” value is 3 °C. Moreover, the half-maximal inhibitory concentration (IC50) in experiment [2] amounted to 370 nM.
For `Cc1cc(C)nc(Oc2nc(Nc3ccc4nc(C)cc(N)c4c3)nc(Nc3ccc4nc(C)cc(N)c4c3)n2)n1` [Example 109] the same measures were 4.5 °C and 340 nM.
`Cc1cc(N)c2cc(Nc3nc(Nc4ccc5nc(C)cc(N)c5c4)nc(Oc4ccccn4)n3)ccc2n1` [Example 110]: the “G4 delta Tm” value in experiment [1] was found to be 20.5 °C. In addition, in experiment [2], the IC50 was found to be 610 nM.
Regarding `Cc1cc(N)c2cc(Nc3nc(Nc4ccc5nc(C)cc(N)c5c4)nc(Oc4ncccn4)n3)ccc2n1` [Example 111], the “G4 delta Tm” value in experiment [1] is 23.5 °C. Moreover, the IC50 in experiment [2] is 480 nM.
Regarding `COCCOc1nc(Nc2ccc3nc(C)cc(N)c3c2)nc(Nc2ccc3nc(C)cc(N)c3c2)n1` [Example 112], in experiment [1], the “G4 delta Tm” value was 15 °C. In experiment [2], the 50% inhibitory concentration (IC50) worked out at 320 nM.
